Test results taken from US20110105393A1, “METHODS FOR PROMOTING STEM CELL PROLIFERATION AND SURVIVAL” (priority 2007, published 2011).

Assays:
[1] = system: proliferating (BrdU+) cells; test: BrdU+ proliferating cells after single intra-ventricular injection; assay type: in vivo, rat; settings: BrdU days 2-4, sacrifice day 5
Procedure: (§1) Pharmacological treatments.
(§2) Immunohistochemistry: Under deep anesthesia, animals were perfused transcardially with a rinse of saline, followed by 4% formaldehyde fixative (pH 7.4). Brains were removed immediately, stored in the fixative solution overnight and then in 30% sucrose for 3 days. Brains were frozen-sectioned at 16 μm. Immunohistochemical detection of BrdU and Hes3 was performed with an antigen-retrieval step (sections were boiled in 0.02M citrate, pH 6.0 in a microwave for 5 min, washed 3 times with distilled water, and incubated for 45 min in 2M HCl, at room temperature).
(§3) Hes3+ cells in the central nervous system (CNS) parenchyma were characterized and the means to activate the NSC compartment in vivo was investigated. Single injections of pharmacologically active compounds were performed in the lateral ventricle, bromodeoxyuridine (BrdU) was administered intraperitoneally (days 2-4) and the animals were sacrificed on day 5. At the subventricular zone (SVZ), a single intra-ventricular injection of Dll4 induced STAT3-S727 phosphorylation and Hes3 expression within 5 days. […] BrdU+ cell numbers were elevated in all these areas (FIG. 3a).

[2] = system: dopamine neurons in the substantia nigra; test: Fluorogold retrograde labelling of dopamine neurons in the substantia nigra, 6OHDA model; assay type: in vivo, rat; settings: for neuroprotective effects on neurons: summary of in vivo treatments; for cell body diameter of TH+/Fluorogold+ cells in the substantia nigra: treatment 2-weeks following 6OHDA lesion, ipsilateral (FIG. 6e)
Procedure: as §1
To investigate the clinical potential of this treatment approach, the compounds were used in an animal model of Parkinson's disease. Adult rats were lesioned by intra-striatal 6-OH-DA (Przedborski, S. et al., Neuroscience 67, 631-47, 1995). After two weeks, a single injection of the compounds was administered in the lateral ventricle ipsilateral to the lesion. Amphetamine-induced rotations were measured bi-weekly throughout the experiment. Thirteen weeks after treatment they were given a single injection of fluorogold in the striatum to label the […] dopaminergic projection.

blood vessels (RECA-1) = test: Blood vessel number and size in striatum (RECA-1 staining) after 6OHDA lesion and treatment; settings: for number and size of blood vessels in the striatum: 13 weeks after a single treatment, pattern recognition software; for blood vessel numbers or size (undesirable effects, summary): rat, in vivo
Procedure: Blood vessel counting and area quantitation: Zeiss software was used to identify, count, and measure blood vessels stained for the pan-endothelial marker RECA-1. To measure the average distance between adjacent Hes3+ cells along the same blood vessel, 25 high-power (×63) confocal z-stack images were used from brain sections stained for endothelial markers and Hes3.
6OHDA Lesion. Some animals underwent unilateral lesion of the nigrostriatal dopamine pathway by stereotactical injection of 50 μg 6-hydroxydopamine (6-OHDA) into the right striatum, using the following coordinates: bregma AP +0.5 mm, ML −3.0 mm, VD +5.5 mm.
Pharmacological treatments. Unlesioned animals, or animals two weeks after 6-OHDA lesion, were treated with different pharmacologic agents. Five microliters (μl) of different drugs were stereotactically injected into the right lateral ventricle using the following stereotaxic coordinates: bregma AP −0.9 mm, ML −1.4 mm, VD +3.8 mm. The following reagents were used: Dll4 (2 mg/ml), Ang-2 (1 mg/ml), insulin (8 mg/ml), Jak-Inhibitor (20 μM), either alone or in combination.
In vivo Experiments: Male adult (3-6 months) Sprague Dawley rats (Charles River Laboratories), weighing 250-350 gm, was used for pharmacological treatments and lesion experiments. For 6OHDA Lesion: animals underwent unilateral lesion of the nigrostriatal dopamine pathway by stereotactical injection of 50 μg 6-hydroxydopamine (6-OHDA) into the right striatum, using the following coordinates: bregma AP +0.5 mm, ML −3.0 mm, VD +5.5 mm. For pharmacological treatments: unlesioned animals, or animals two weeks after 6OHDA lesion, were treated with different pharmacologic agents. Five μl of different drugs were stereotactically injected into the right lateral ventricle using the following stereotaxic coordinates: bregma AP −0.9 mm, ML −1.4 mm, VD +3.8 mm. The following reagents were used: Dll4 (2 mg/ml), Ang2 (1 mg/ml), insulin (8 mg/ml), Jak-Inhibitor (20 μM), either alone or in combination. After all surgeries, animals were allowed to recover from the anesthesia and were put back into their home cages, where they were given access to food and water ad libitum. For labeling of dividing cells: Animals received intraperitoneal injection of the tracer bromodeoxyuridine (BrdU) (50 mg/kg) every 12 hours for 5 days beginning on day 1 post-op to label dividing cells. Amphetamine induced rotations: At multiple time points over the course of the experiment, lesioned rats were injected intra-peritoneally with D-Amphetamine sulfate (5 mg/kg) and placed in automated rotometer bowls. Rotational behavior was assessed by monitoring total number of whole body (360°) turns over 60 min.

NSC cultures = test: Incidence of Tie-2 spikes in NSC cultures; assay type: cell-based; settings: for % of cells with at least one spike: NSC cultures; for spike number: thirty minutes after treatment
Procedure: A protrusion of the cell membrane was identified in neuronal stem cells (NSCs) when the Tie-2 receptor is concentrated. This can be visualized using antibodies that bind Tie-2. The protrusion was termed a spike. These spikes appear 30 minutes after treatment with pharmaceutical agents. […] increase spike number thirty minutes after treatment. […] Thus, a novel sub-cellular structure ahs been identified. These structures could regulate the responsiveness of cells to treatments.
Thus, a novel protrusion of the cell membrane in NSCs has been identified where the Tie-2 receptor is concentrated. This can be easily visualized using an antibody against Tie-2 that recognizes a particular epitope. […] Indeed, the spike is devoid of actin filaments or tubulin. The spikes can be detected within thirty minutes of contacting the cultures with an the factors. Thus, the spikes provide a rapid assay for the effect of pharmacologic agents.

Hes3+ cells = Hes3+ cells after single intra-ventricular injection; assay type: in vivo, rat; settings: for number of Hes3+ cells in the adult striatum and substantia nigra: single intracerebroventricular injection, within 5 days (FIG. 11); for number of stem cells/precursors in the adult brain: summary of in vivo treatments
Procedure: as §1, §2, §3
as §2, with “(Sections” for “(sections”, “minutes,” for “min,”

[3] = 6OHDA lesioned, striatum, RECA-1 (FIG. 5c)

Substance | number of proliferating cells in the SVZ [1] | neuroprotective effects on neurons [2] | cell body diameter of TH+/Fluorogold+ cells in the substantia nigra [2] | number of vessels (blood vessels (RECA-1); [3]) | number and size of blood vessels in the striatum (blood vessels (RECA-1)) | blood vessel numbers or size (undesirable effects, summary) (blood vessels (RECA-1)) | % of cells with at least one spike (NSC cultures) | spike number (NSC cultures) | number of Hes3+ cells in the adult striatum and substantia nigra (Hes3+ cells) | number of stem cells/precursors in the adult brain (Hes3+ cells) | diameter of the vessels (blood vessels (RECA-1); [3]) | STAT3-S727 phosphorylation and Hes3 expression at the subventricular zone (Hes3+ cells; single intra-ventricular injection, within 5 days) | numbers of Hes3+ and Tie-2+ precursor cells in the SVZ (Hes3+ cells; single ventricular injection) | effect on the vasculature (striatum, RECA-1) (blood vessels (RECA-1); 6OHDA lesioned, end of experiment (FIG. 5c))
Ang-2: human angiopoietin-2 (623-AN) from R&D; antagonist for angiopoietin-1 at Tie2 | increased | exert neuroprotective effects | increase | significantly increased | opposing and long-lasting effects | increases the number and size of blood vessels | 2.5% | increase | increased | increase |  |  |  | 
Dll4: Notch ligand Delta-like 4; mouse Dll4 (1389-D4) from R&D | increased | exert neuroprotective effects |  |  | opposing and long-lasting effects | reduces the number and size of blood vessels | 2.1% | increase | increased | increase | significantly decreased | induced | rapidly increased | 
insulin: insulin (Sigma, 19278), growth factor | increased | exert neuroprotective effects | increase |  |  | increases the number of blood vessels adjacent to the injection site |  |  |  | increase |  |  |  | relatively small effect
